Where two headings read alike, the source gives them in different places.
Tests used:
Type in all cases: cell-based
[1] = test system: Dictyostelium discoideum; assay: Infection assay: growth of the host amoeba D. discoideum (fluorescence) in infection; conditions: for activity at 0.411523 µM / activity at 1.23457 µM / activity at 3.7037 µM / activity at 11.1111 µM / activity at 33.3333 µM / activity at 100 µM: 72 h; for IC50: read-out: IC50 Dd in infection (μM)
From the text: (§1) Since fractions were not weighed individually, the injection mass was used to calculate an average mass per fraction and thus a nominal mass concentration.

[2] = test system: Mycobacterium marinum; assay: Infection assay: intracellular M. marinum growth (luminescence) in D. discoideum; conditions: for activity at 0.411523 µM / activity at 1.23457 µM / activity at 3.7037 µM / activity at 11.1111 µM / activity at 33.3333 µM / activity at 100 µM: 72 h; for activity at 0.411523 µM: conc 0.411522634 uM; for activity at 1.23457 µM: conc 1.234567901 uM; for activity at 3.7037 µM: conc 3.703703704 uM; for activity at 11.1111 µM: conc 11.11111111 uM; for activity at 33.3333 µM: conc 33.33333333 uM; for activity at 100 µM: conc 100 uM; for IC50: interpolated between the two concentrations closest to residual growth 0.5, top concentration 100 μM
From the text: as §1

[3] = test system: Mycobacterium marinum; assay: Anti-biotic assay: M. marinum growth in broth (luminescence); conditions: for activity at 0.411523 µM / activity at 1.23457 µM / activity at 3.7037 µM / activity at 11.1111 µM / activity at 33.3333 µM / activity at 100 µM: 72 h; for IC50: read-out: IC50 Mm in broth (μM)
Procedure: as §1
Plating bacteria and compounds or fractions was performed analogously to the infection assay described above. Bacteria growth was monitored with the Agilent BioTek H1 plate reader by recording luminescence at 32 °C.
The prepared plates were sealed and stored at 4 °C overnight. On the day of the experiment, nine 10 cm Petri dishes were infected (as described before) and grouped into three pools.

[4] = read-out: mean normalized residual growth, Dd in infection
[5] = read-out: median normalized residual growth, Dd in infection
[6] = vehicle control set at 1, read-out: mean normalized residual growth, Mm in infection
[7] = vehicle control set at 1, read-out: median normalized residual growth, Mm in infection
[8] = read-out: mean (normalised M. marinum growth, Mm in broth)
[9] = read-out: median (normalised M. marinum growth, Mm in broth)

Compound | activity at 0.411523 µM [1, 4] [%] | activity at 1.23457 µM [1, 4] [%] | activity at 3.7037 µM [1, 4] [%] | activity at 11.1111 µM [1, 4] [%] | activity at 33.3333 µM [1, 4] [%] | activity at 100 µM [1, 4] [%] | activity at 0.411523 µM [1, 5] [%] | activity at 1.23457 µM [1, 5] [%] | activity at 3.7037 µM [1, 5] [%] | activity at 11.1111 µM [1, 5] [%] | activity at 33.3333 µM [1, 5] [%] | activity at 100 µM [1, 5] [%] | IC50 [1] [µM] | activity at 0.411523 µM [2, 6] [%] | activity at 0.411523 µM [2, 7] [%] | activity at 1.23457 µM [2, 6] [%] | activity at 1.23457 µM [2, 7] [%] | activity at 3.7037 µM [2, 6] [%] | activity at 3.7037 µM [2, 7] [%] | activity at 11.1111 µM [2, 6] [%] | other results
Oc1ccc(/C=C/c2cc(O)c3c(c2)O[C@@H](c2ccc(O)cc2O)[C@@H]3c2cc(O)cc(O)c2)cc1 (relative stereo) [Compound 1, (+)-Gnetin D] | 161 | 111 | 113 | 81.5 | 58.3 | 47.7 | 94.2 | 88.8 | 85.1 | 80.3 | 86.2 | 82.6 | > 100 | 93.5 | 93.7 | 114 | 117 | 153 | 154 | 171 | activity at 11.1111 µM [2, 7]: 172%; activity at 33.3333 µM [2, 6]: 168%; activity at 33.3333 µM [2, 7]: 169%; activity at 100 µM [2, 6]: 86.4%; activity at 100 µM [2, 7]: 83.4%; IC50 [2]: > 100 µM; activity at 0.411523 µM [3, 8]: 121%; activity at 1.23457 µM [3, 8]: 119%; activity at 3.7037 µM [3, 8]: 118%; activity at 11.1111 µM [3, 8]: 111%; activity at 33.3333 µM [3, 8]: 110%; activity at 100 µM [3, 8]: 102%; activity at 0.411523 µM [3, 9]: 120%; activity at 1.23457 µM [3, 9]: 116%; activity at 3.7037 µM [3, 9]: 117%; activity at 11.1111 µM [3, 9]: 110%; activity at 33.3333 µM [3, 9]: 110%; activity at 100 µM [3, 9]: 102%
Oc1ccc(/C=C/c2cc(O)c3c(c2)O[C@H](c2ccc(O)cc2O)[C@@H]3c2cc(O)cc(O)c2)cc1 (relative stereo) [Compound 2, (+)-Gnetupendin C] | 94.2 | 97.6 | 98.8 | 105 | 101 | 114 | 101 | 91.8 | 86 | 76.8 | 74.6 | 83.1 | > 100 | 112 | 122 | 145 | 143 | 154 | 147 | 167 | activity at 11.1111 µM [2, 7]: 167%; activity at 33.3333 µM [2, 6]: 109%; activity at 33.3333 µM [2, 7]: 105%; activity at 100 µM [2, 6]: 27.8%; activity at 100 µM [2, 7]: 35.5%; IC50 [2]: 66.7 µM; activity at 0.411523 µM [3, 8]: 97.4%; activity at 1.23457 µM [3, 8]: 103%; activity at 3.7037 µM [3, 8]: 113%; activity at 11.1111 µM [3, 8]: 109%; activity at 33.3333 µM [3, 8]: 110%; activity at 100 µM [3, 8]: 109%; activity at 0.411523 µM [3, 9]: 95.6%; activity at 1.23457 µM [3, 9]: 101%; activity at 3.7037 µM [3, 9]: 111%; activity at 11.1111 µM [3, 9]: 108%; activity at 33.3333 µM [3, 9]: 109%; activity at 100 µM [3, 9]: 109%; IC50 [3]: > 100 µM
Oc1cc(O)cc([C@H]2c3c(O)cc(/C=C/c4ccc(O)cc4O)cc3O[C@@H]2c2ccc(O)cc2O)c1 (relative stereo) [Compound 10, (−)-Gnetumontanin A] | 126 | 88.6 | 59.8 | 54.4 | 51.5 | 6.33 | 102 | 97 | 90.5 | 84.7 | 80.4 | 76.2 | > 100 | 90.6 | 90.5 | 132 | 135 | 120 | 120 | 145 | activity at 11.1111 µM [2, 7]: 152%; activity at 33.3333 µM [2, 6]: 157%; activity at 33.3333 µM [2, 7]: 160%; activity at 100 µM [2, 6]: 41.3%; activity at 100 µM [2, 7]: 59.1%; IC50 [2]: > 100 µM; activity at 0.411523 µM [3, 8]: 111%; activity at 1.23457 µM [3, 8]: 103%; activity at 3.7037 µM [3, 8]: 95.3%; activity at 11.1111 µM [3, 8]: 96.3%; activity at 33.3333 µM [3, 8]: 99.7%; activity at 100 µM [3, 8]: 90%; activity at 0.411523 µM [3, 9]: 116%; activity at 1.23457 µM [3, 9]: 103%; activity at 3.7037 µM [3, 9]: 95.2%; activity at 11.1111 µM [3, 9]: 96.3%; activity at 33.3333 µM [3, 9]: 97.6%; activity at 100 µM [3, 9]: 91%
Oc1ccc(C=Cc2cc(O)cc3c2C(c2cc(O)cc(O)c2)C(c2ccc(O)c4c2OC(c2ccc(O)cc2O)C4c2cc(O)cc(O)c2)O3)cc1 (single isomer, unassigned; (-)) [Compound 11, (−)-Gnetuhainin M] | 150 | 115 | 73.2 | 64.6 | 39.6 | 11.1 | 87.9 | 94.4 | 85.9 | 83 | 90.3 | 72.8 | > 100 | 57.2 | 56.8 | 112 | 106 | 127 | 128 | 135 | activity at 11.1111 µM [2, 7]: 123%; activity at 33.3333 µM [2, 6]: 28.9%; activity at 33.3333 µM [2, 7]: 31.3%; activity at 100 µM [2, 6]: -4.28%; activity at 100 µM [2, 7]: 14.1%; IC50 [2]: 22.2 µM; activity at 0.411523 µM [3, 8]: 99%; activity at 1.23457 µM [3, 8]: 108%; activity at 3.7037 µM [3, 8]: 110%; activity at 11.1111 µM [3, 8]: 88.7%; activity at 33.3333 µM [3, 8]: 92.2%; activity at 100 µM [3, 8]: 86.8%; activity at 0.411523 µM [3, 9]: 104%; activity at 1.23457 µM [3, 9]: 107%; activity at 3.7037 µM [3, 9]: 115%; activity at 11.1111 µM [3, 9]: 91.1%; activity at 33.3333 µM [3, 9]: 96.7%; activity at 100 µM [3, 9]: 83.5%; IC50 [3]: > 100 µM
Oc1ccc(/C=C/c2cc(O)c3c(c2)O[C@@H](c2ccc(O)cc2)[C@@H]3c2cc(O)c3c(c2)O[C@@H](c2ccc(O)cc2O)[C@H]3c2cc(O)cc(O)c2)cc1 [Compound 4, (−)-Gnetoline A] | 146 | 109 | 106 | 88.5 | 79 | -10.4 | 96.5 | 84.4 | 85.1 | 79.5 | 79.5 | 38.1 | 66.7 | 153 | 139 | 173 | 160 | 176 | 171 | 139 | activity at 11.1111 µM [2, 7]: 135%; activity at 33.3333 µM [2, 6]: 88.4%; activity at 33.3333 µM [2, 7]: 86.1%; activity at 100 µM [2, 6]: 12.2%; activity at 100 µM [2, 7]: 17.7%; IC50 [2]: 66.7 µM; activity at 0.411523 µM [3, 8]: 115%; activity at 1.23457 µM [3, 8]: 113%; activity at 3.7037 µM [3, 8]: 113%; activity at 11.1111 µM [3, 8]: 112%; activity at 33.3333 µM [3, 8]: 110%; activity at 100 µM [3, 8]: 99.3%; activity at 0.411523 µM [3, 9]: 112%; activity at 1.23457 µM [3, 9]: 115%; activity at 3.7037 µM [3, 9]: 115%; activity at 11.1111 µM [3, 9]: 116%; activity at 33.3333 µM [3, 9]: 108%; activity at 100 µM [3, 9]: 99.5%; IC50 [3]: > 100 µM
Oc1ccc(/C=C/c2cc(O)c3c(c2)O[C@@H](c2ccc(O)cc2)[C@@H]3c2cc(O)c3c(c2)O[C@H](c2ccc(O)cc2O)[C@H]3c2cc(O)cc(O)c2)cc1 [Compound 5, (−)-Latifolol] | 112 | 85.8 | 91.4 | 75.1 | 61 | -3.13 | 93.8 | 81.7 | 79.8 | 74.5 | 69 | 32.8 | 66.7 | 116 | 112 | 160 | 158 | 192 | 178 | 136 | activity at 11.1111 µM [2, 7]: 125%; activity at 33.3333 µM [2, 6]: 81.5%; activity at 33.3333 µM [2, 7]: 81.6%; activity at 100 µM [2, 6]: 2.94%; activity at 100 µM [2, 7]: 7.57%; IC50 [2]: 66.7 µM; activity at 0.411523 µM [3, 8]: 107%; activity at 1.23457 µM [3, 8]: 108%; activity at 3.7037 µM [3, 8]: 104%; activity at 11.1111 µM [3, 8]: 114%; activity at 33.3333 µM [3, 8]: 95.8%; activity at 100 µM [3, 8]: 91%; activity at 0.411523 µM [3, 9]: 106%; activity at 1.23457 µM [3, 9]: 108%; activity at 3.7037 µM [3, 9]: 107%; activity at 11.1111 µM [3, 9]: 116%; activity at 33.3333 µM [3, 9]: 102%; activity at 100 µM [3, 9]: 102%; IC50 [3]: > 100 µM

From publication PMC12015462, “Prioritization of novel anti-infective stilbene derivatives by combining metabolomic data organization and a stringent 3R-infection model in a knowledge graph” (RSC Advances, 2025)
